IC50 data for 1 molecule are collected here from BindingDB's records for patent US10188642 (Cancer Research Technology Limited, 2019).

This assay deals with T1, Dual specificity protein kinase TTK (Homo sapiens, UniProt P33981).
T1 sequence (P33981 whole entry): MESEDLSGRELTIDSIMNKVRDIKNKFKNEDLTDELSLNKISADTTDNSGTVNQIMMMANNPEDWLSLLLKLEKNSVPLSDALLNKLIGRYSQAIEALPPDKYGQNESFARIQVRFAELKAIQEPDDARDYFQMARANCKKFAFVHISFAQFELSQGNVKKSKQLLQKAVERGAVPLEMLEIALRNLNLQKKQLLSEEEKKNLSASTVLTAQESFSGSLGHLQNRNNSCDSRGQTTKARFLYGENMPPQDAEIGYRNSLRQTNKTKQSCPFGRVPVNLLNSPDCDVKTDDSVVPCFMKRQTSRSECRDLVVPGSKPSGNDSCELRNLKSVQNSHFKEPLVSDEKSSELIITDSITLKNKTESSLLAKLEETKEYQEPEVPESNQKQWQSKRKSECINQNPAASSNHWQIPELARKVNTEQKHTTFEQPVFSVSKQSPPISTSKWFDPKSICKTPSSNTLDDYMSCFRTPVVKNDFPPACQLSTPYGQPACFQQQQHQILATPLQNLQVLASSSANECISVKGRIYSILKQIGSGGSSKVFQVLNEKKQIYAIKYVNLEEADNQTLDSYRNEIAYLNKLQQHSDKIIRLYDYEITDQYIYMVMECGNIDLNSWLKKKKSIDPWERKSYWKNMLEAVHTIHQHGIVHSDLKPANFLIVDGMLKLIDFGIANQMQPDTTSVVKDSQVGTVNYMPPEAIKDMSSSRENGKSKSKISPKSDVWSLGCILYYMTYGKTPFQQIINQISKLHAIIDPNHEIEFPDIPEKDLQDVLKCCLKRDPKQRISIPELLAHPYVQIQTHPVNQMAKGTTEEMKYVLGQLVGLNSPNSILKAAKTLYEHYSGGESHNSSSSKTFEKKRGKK
Briefly: Measurement of Inhibition of MPS1 Kinase. The procedure:
The reaction was carried out for 60 min at room temperature and stopped by the addition of buffer (10 μl) containing 20 mM EDTA, 0.05% (v/v) Brij-35, in 0.1M HEPES-buffered saline (Free acid, Sigma, UK). […] The % inhibition of the compounds is calculated relative to the means of selected control wells. […] The % inhibitions at each concentration are then fitted to a 4 parameter logistic fit: y=(a+((b−a)/(1+((c/x^d)))) where a=asym min, b=asym max, c=IC50 and d=hill coefficient.

SMILES strings stand for the structures.

Take `COc1cc(-c2nnc3n2CCN(C(=O)CC(C)(C)C)C3)ccc1Nc1cc2cc(-c3cnn(CC(C)(C)O)c3)ccc2cn1` [US10188642, Example 55]: 3 nM corresponded to half-maximal inhibition (IC50).
